Measured values published in patent US9173395B2, “Use of substituted isoquinolinones, isoquinolindiones, isoquinolintriones and dihydroisoquinolinones or in each case salts thereof as active agents against abiotic stress in plants” (BAYER INTELLECTUAL PROPERTY GMBH, priority 2011, dated 2015).

Legend:
BRSNS = assay: Drought stress test on crop plants, visual damage rating, efficacy EF; type: in vivo, Brassica napus; settings: dosage 25 g/ha, mean of three results
Method: (§1) Seeds of monocotyledonous and dicotyledonous crop plants were laid out in sandy loam in wood-fiber pots, covered with soil and cultivated in a greenhouse under good growth conditions. The test plants were treated at the early leaf stage (BBCH10-BBCH13). To ensure uniform water supply before commencement of stress, the potted plants were supplied with the maximum amount of water immediately beforehand by dam irrigation and, after application, transferred into plastic inserts in order to prevent subsequent, excessively rapid drying. The compounds according to the invention, formulated in the form of wettable powders (WP), wettable granules (WG), suspension concentrates (SC) or emulsion concentrates (EC), were sprayed onto the green parts of the plants as an aqueous suspension at an equivalent water application rate of 600 I/ha with addition of 0.2% wetting agent (agrotin). Substance application is followed immediately by stress treatment of the plants (cold or drought stress). […]
(§2) After the recovery phase had ended, the intensities of damage were rated visually in comparison to untreated, unstressed controls of the same age (in the case of drought stress) or the same growth stage (in the case of cold stress). The intensity of damage was first recorded as a percentage (100%=plants have died, 0%=like control plants). […]

TRZAS = assay: as above; type: in vivo, Triticum aestivum; settings: dosage 25 g/ha, mean of three results
Method: as §1, §2

Compound: O=c1[nH]ccc2ccc(-c3ccc(Cl)cc3F)cc12 [I.1-252, 7-(4-chloro-2-fluorophenyl)isoquinolin-1(2H)-one]
- EF (BRSNS) (BRSNS): >5%
- EF (TRZAS) (TRZAS): >5%
